According to US20230265048A1, “NOVEL SPHINGOLIPID CONTAINING BRANCHED-CHAIN FATTY ACID AND USE THEREOF” (SOLUS BIOTECH CO., LTD., priority 2020, published 2023):

Experiments:
[1] = Test Example 3: Solubility in oils and polyols; type: physicochemical; set-up: key: −: Non-soluble; +: Soluble (recrystallization occurred after cooling to room temperature); ++: Very soluble (recrystallization did not occur after cooling to room temperature); conditions: heated at 80° C., cooled to room temperature
Experimental: The ceramides of Example 4, Comparative Example 1, and Comparative Example 2 were mixed with oils and polyols at 0.1 to 1.0 wt % relative to the solvent substance, and then heated with stirring at 80° C. and then cooled to room temperature.

[2] = test system: skin erythema index on the cheek area; test: Test Example 6: erythema relieving effect (Mexameter MX 18); type: in vivo, human
Experimental: The branched chain fatty acid ceramide-containing formulation prepared in Example 6 was clinically tested for erythema relieving effect. Specifically, for erythema measurement, a total of 10 test subjects were subjected to application of the branched chain fatty acid ceramide-containing formulation prepared in Example 6 twice a day, and measured before use (Week 0), 1 week after use, and 2 weeks after use by an instrument. The skin erythema index on the cheek area was measured using Mexameter MX 18 of Courage+Khazaka (C-K) (Cologne, Germany).

Question: What does the source list for CCCCCCCC/C=C\CCCCCCCC(=O)N[C@@H](CO)[C@H](O)/C=C/CCCCCCCCCCCCC [Comparative Example 2, Oleoyl ceramide, reference compound]?
Answer: Solubility ([1]; Butylene glycol, 0.1%): +; Solubility ([1]; Butylene glycol, 0.5%): +; Solubility ([1]; Caprylic/capric triglyceride, 0.1%): −; Solubility ([1]; Caprylic/capric triglyceride, 0.5%): −; Solubility ([1]; Cetyl ethyl hexanoate, 0.1%): −; Solubility ([1]; Cetyl ethyl hexanoate, 0.5%): −; Solubility ([1]; Dipropylene glycol, 0.1%): +; Solubility ([1]; Dipropylene glycol, 0.5%): −; Solubility ([1]; Glycerin, 0.1%): −; Solubility ([1]; Glycerin, 0.5%): −; Solubility ([1]; Macadamia ternifolisa seed oil, 0.1%): −; Solubility ([1]; Macadamia ternifolisa seed oil, 0.5%): −; Solubility ([1]; Propylene glycol, 0.1%): −; Solubility ([1]; Propylene glycol, 0.5%): −; Erythema (skin erythema index) ([2]; Week 0 (before use)): 261.53 ± 10.82; Erythema (skin erythema index) ([2]; Week 1, applied twice a day): 236.2 ± 11.578; Erythema (skin erythema index) ([2]; Week 2, applied twice a day): 213.47 ± 11.518
